Measurements from patent US7776899B2, “Methods for treatment of erectile dysfunction” (Repros Therapeutics Inc., priority 1998, dated 2010).
Counter-ions that a name gives are not always drawn.

Columns and labels:
[1] = physchem; settings: thermodynamic from solid
[2] = pH 7.48

**Q.** For `COc1ccc(Cc2nccc3cc(OC)c(OC)cc23)cc1OC` [Papaverine, papaverine hydrochloride], which solubility ([1]; pH 3.91, aqueous buffer, In Solution (solubility in mixture)) is on record?
**A.** 36800 µg/mL

**Q.** And the solubility ([1]; pH 3.91, aqueous buffer, solubility)?
**A.** ~36800 µg/mL

**Q.** And the solubility ([1]; pH 4.35, aqueous buffer, In Solution (solubility in mixture))?
**A.** 7750 µg/mL

**Q.** And the solubility ([1]; pH 5.04, aqueous buffer, In Solution (solubility in mixture))?
**A.** 700 µg/mL

**Q.** And the solubility ([1]; pH 7.48, aqueous buffer, In Solution (solubility in mixture))?
**A.** ~200 µg/mL

**Q.** And the solubility ([1]; pH 7.65, aqueous buffer, In Solution (solubility in mixture))?
**A.** 200 µg/mL

**Q.** What about the “In Solution (solubility in mixture)” value [2] of the same molecule?
**A.** 170 µg/mL
